# Assay results as given in patent publication US20120172392A1, “AMINE-BASED AND AMIDE-BASED INHIBITORS OF SEMICARBAZIDE-SENSITIVE AMINE OXIDASE (SSAO) ENZYME ACTIVITY AND VAP-1 MEDIATED ADHESION USEFUL FOR TREATMENT OF DISEASES” (priority 2004, published 2012).
# pIC50: −log10 of the molar value. Structures can show the parent of a compound that is named as a salt.
# What was measured:
# SSAO [1] = target: T1, SSAO (Rattus norvegicus, UniProt O08590); test: In vitro inhibition of SSAO activity, radiolabeled benzylamine procedure (rat lung homogenate); type: biochemical
# T1 construct: from tissue; host or cells: rat lung homogenate (1000 g supernatant)
# T1 sequence (O08590 1-763): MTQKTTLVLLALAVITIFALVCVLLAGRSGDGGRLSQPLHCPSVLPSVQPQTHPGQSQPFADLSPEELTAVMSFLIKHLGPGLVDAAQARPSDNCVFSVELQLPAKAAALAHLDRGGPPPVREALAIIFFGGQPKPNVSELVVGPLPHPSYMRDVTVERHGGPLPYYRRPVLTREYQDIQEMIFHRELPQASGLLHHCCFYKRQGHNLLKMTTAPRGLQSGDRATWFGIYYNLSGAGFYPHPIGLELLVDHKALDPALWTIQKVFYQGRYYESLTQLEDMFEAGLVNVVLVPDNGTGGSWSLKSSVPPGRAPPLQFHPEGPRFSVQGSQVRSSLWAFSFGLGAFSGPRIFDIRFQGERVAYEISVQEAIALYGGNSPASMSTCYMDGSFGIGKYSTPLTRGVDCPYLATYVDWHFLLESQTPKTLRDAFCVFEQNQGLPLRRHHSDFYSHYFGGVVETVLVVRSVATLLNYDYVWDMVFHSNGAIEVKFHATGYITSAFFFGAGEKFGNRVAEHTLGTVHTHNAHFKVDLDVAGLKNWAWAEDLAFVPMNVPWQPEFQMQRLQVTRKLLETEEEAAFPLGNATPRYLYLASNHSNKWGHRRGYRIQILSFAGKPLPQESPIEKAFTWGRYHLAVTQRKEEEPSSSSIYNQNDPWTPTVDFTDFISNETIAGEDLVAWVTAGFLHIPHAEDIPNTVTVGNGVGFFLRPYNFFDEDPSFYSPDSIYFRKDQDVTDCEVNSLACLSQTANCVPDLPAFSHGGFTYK
# Method: SSAO activity was also measured as described (Lizcano J M. Et al. (1998) Biochem J. 331:69). Briefly, rat lung homogenates were prepared by chopping the freshly removed tissue into small pieces and washing them thoroughly in PBS. The tissue was then homogenized 1:10 (w/v) in 10 mM potassium phosphate buffer (pH 7.8) and centrifuged at 1000 g at 4° C. for 10 minutes; the supernatant was kept frozen until ready to use. SSAO activity in 100 ul of lung homogenate was determined radiochemically using 20 uM ^14C-benzylamine as substrate. The reaction was carried out at 37° C. in a final volume of 300 ul of 50 mM potassium phosphate buffer (pH 7.2) and stopped with 100 ul of 2 M citric acid. Radioactively labeled products were extracted into; toluene/ethyl acetate (1:1, v/v) containing 0.6% (w/v) 2,5-diphenyloxdazole (PPO) before liquid scintillation counting.
# human MAO-A = target: T2, human MAO-A (Homo sapiens, UniProt P21397); test: Inhibition of MAO-A activity, coupled colorimetric assay; type: biochemical; conditions: recombinant human MAO-A, tyramine substrate
# T2 construct: purchased BD Biosciences (MA, USA)
# T2 sequence (P21397 1-527): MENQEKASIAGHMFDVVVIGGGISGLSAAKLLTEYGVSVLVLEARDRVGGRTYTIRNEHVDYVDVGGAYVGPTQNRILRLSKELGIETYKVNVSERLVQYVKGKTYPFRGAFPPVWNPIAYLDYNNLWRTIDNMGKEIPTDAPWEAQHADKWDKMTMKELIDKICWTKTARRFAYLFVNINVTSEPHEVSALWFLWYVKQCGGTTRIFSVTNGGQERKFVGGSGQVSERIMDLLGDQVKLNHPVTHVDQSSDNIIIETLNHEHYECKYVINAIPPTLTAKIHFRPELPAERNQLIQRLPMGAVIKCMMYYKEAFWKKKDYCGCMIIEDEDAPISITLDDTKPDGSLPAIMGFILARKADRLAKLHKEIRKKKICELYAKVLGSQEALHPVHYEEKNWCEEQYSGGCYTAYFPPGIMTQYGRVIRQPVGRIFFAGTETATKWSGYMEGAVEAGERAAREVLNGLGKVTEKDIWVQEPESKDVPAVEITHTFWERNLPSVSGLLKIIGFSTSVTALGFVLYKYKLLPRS
# Method: (§1) The specificity of the different SSAO inhibitors was tested by determining their ability to inhibit MAO-A and MAO-B activities in vitro. Recombinant human MAO-A and human MAO-B enzymes were obtained from BD Biosciences (MA, USA). MAO activities were measured in a similar way as for SSAO except that no pre-incubation with inhibitor or substrate was performed. A pre-determined amount of inhibitor diluted in 0.2 M potassium phosphate buffer, pH 7.6, was added to each well, if required. The amount of inhibitor varied in each assay but was generally at a final concentration of between 50 nM and 1 mM. Controls lacked inhibitor. The following agents were then added to a final reaction volume of 200 μl in 0.2 M potassium phosphate buffer, pH 7.6: 0.04 mg/ml of MAO-A or 0.07 mg/ml MAO-B enzyme, 15 μl of 10 mM tyramine substrate (for MAO-A), or 15 μl 100 mM benzylamine substrate (for MAO-B), and 50 μl of freshly made chromogenic solution (as above). The plates were incubated for 60 min at 37° C. The increase in absorbance, reflecting MAO activity, was measured at 490 nm using microplate spectrophotometer (Power Wave 40, Bio-Tek Inst.). Inhibition was determined as percent inhibition compared to control after correcting for background absorbance and IC50 values, and was calculated using. GraphPad Prism software. […]
# human MAO-B = target: T3, human MAO-B (Homo sapiens, UniProt P27338); test: Inhibition of MAO-B activity, coupled colorimetric assay; type: biochemical; conditions: recombinant human MAO-B, benzylamine substrate
# T3 construct: purchased BD Biosciences (MA, USA)
# T3 sequence (P27338 1-520): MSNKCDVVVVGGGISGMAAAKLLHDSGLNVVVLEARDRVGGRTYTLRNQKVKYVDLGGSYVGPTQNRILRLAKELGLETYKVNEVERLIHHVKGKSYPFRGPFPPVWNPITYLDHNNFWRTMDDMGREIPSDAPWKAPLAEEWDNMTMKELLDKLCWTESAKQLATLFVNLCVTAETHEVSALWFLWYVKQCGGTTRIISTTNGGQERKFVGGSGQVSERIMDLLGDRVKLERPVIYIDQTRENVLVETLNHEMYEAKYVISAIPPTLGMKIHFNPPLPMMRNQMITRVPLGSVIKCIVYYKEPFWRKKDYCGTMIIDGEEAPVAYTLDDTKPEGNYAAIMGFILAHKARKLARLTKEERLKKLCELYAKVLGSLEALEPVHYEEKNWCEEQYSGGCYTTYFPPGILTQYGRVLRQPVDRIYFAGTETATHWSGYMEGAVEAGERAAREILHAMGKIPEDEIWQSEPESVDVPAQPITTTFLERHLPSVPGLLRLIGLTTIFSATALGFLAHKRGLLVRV
# Method: as §1
# SSAO [2] = target: T1, SSAO; test: In vitro inhibition of SSAO activity, radiolabeled benzylamine procedure (rat lung homogenate); type: biochemical
# C57BL/6 mice = test: Experimental autoimmune encephalomyelitis (EAE) in mice; type: in vivo; conditions: for EAE development after stopping treatment: after last treatment (d19-25)
# Method: Thirty female C57BL/6 mice were immunized subcutaneously (s,c) with myelin oligodendrocyte glycoprotein 35-55 (MOG peptide 35-55) in Complete Freund Adjuvant (CFA) on day 0, followed by i.p. injections of pertussis toxin (one pertussis toxin injection on day 0, a second pertussis toxin injection on day 2). Groups of 10 mice received either the allylamine Compound mofegiline (M1, 10 mg/kg/dose, twice daily for 18 consecutive days), methotrexate (MTX, 2.5 mg/kg/day, every other day (Mon., Weds., Fri.) till day 18) or vehicle control (twice/day for 18 consecutive days) all starting from one day after the immunization and all administered i.p. Then animals were monitored for body weight, signs of paralysis and death according to a 0-5 scale of scoring system as follows; 1=limp tail or waddling gait with tail tonicity; 2=waddling gait with limp tail (ataxia); 2.5=ataxia with partial limb paralysis; 3=full paralysis of one limb; 3.5=full paralysis of one limb with partial paralysis of second limb; 4=full paralysis of two limbs; 4.5=moribund; 5=death. Results are shown in FIG. 1A, FIG. 1B, and FIG. 1C. […] (p=0.04 by repeated measure analysis to assess the treatment effect. Proper polynomial transformation, with the spacing corresponding to the collection days, was applied to test the time effect). Statistically significant differences in diseases severity between the M1 and vehicle-treated groups, continued even after stopping compound administration and were observed until the end of the study (d25).
# [3] = Table I, compounds of formula X
# [4] = Table II, compounds of formula III
compound,measurement,setting,value
COc1cccc(OCC2=CCCNC2)c1 [compound 1401],inhibition at 10 µM,SSAO [1]; Table II,74%
"NCC(=O)NCc1cc(F)cc(C(F)(F)F)c1 (as salt: trifluoroacetate) [LJP 1383, 2-amino-N-(3-fluoro-5-trifluoromethylbenzyl)acetamide trifluoroacetate]",melting point,,189.5 to 190.5 °C
NCC(=O)NCc1cccnc1 [compound 1356],pIC50,SSAO [1]; [3],6.15
"NCC(=O)NCc1cccnc1 [LJP 1356, 2-amino-N-pyridin-3-ylmethylacetamide]",melting point,,87 to 88 °C
"NCC(=O)NCc1ccc(F)cc1 (as salt: hydrochloride) [LJP 1334, 2-amino-N-(4-fluorobenzyl)acetamide]",melting point,,114 to 115 °C
Fc1cccc(OCC2=CCCNC2)c1 [compound 1398],inhibition at 10 µM,SSAO [1]; Table II,61%
Fc1ccc(OCC2=CCCNC2)cc1 [compound 1395],inhibition at 10 µM,SSAO [1]; Table II,56%
NCC(=O)NCc1cc(F)cc(C(F)(F)F)c1 [compound 1383],pIC50,SSAO [1]; [3],7.48
same,pIC50,human MAO-A,< 2.89
same,pIC50,human MAO-B,< 2.89
same,melting point,,189.5 to 190 °C
"NC/C=C(/Cc1ccccc1)C(F)(F)F [Example 3, 3-benzyl-4,4,4-trifluoro-but-2-enylamine]",melting point,,170 °C (dec.)
"C=CC(N)CCCc1ccccc1 (stereo not shown) [Example 3E, 1-(3-phenyl-propyl)-allylamine]",melting point,,143 to 144 °C
"COc1cccc(CCC2=CCNC2)c1.Cl [LJP 1368, 3-[2-(3-methoxyphenyl)ethyl]-3-pyrroline hydrochloride]",reversibility of inhibition of SSAO enzyme activity,SSAO [2],irreversible
COc1ccc(CCC2=CCNC2)cc1OC [compound 1427],inhibition at 9 µM,SSAO [1]; Table II,50%
COc1ccc(OCC2=CCCNC2)cc1 [compound 1404],inhibition at 10 µM,SSAO [1]; Table II,63%
Fc1ccc(CCC2=CCNC2)cc1 [compound 1402],pIC50,SSAO [1]; [4],5.74
"COc1ccc(CCCC(N)c2ccc(F)c(F)c2)cc1 (stereo not shown) [Example 3D, 1-(3,4-difluorophenyl)-4-(4-methoxyphenyl)-butylamine]",melting point,,200 °C (dec.)
NCC(=O)NCc1ccc(F)cc1 [compound 1334],pIC50,SSAO [1]; [3],5.62
Fc1cccc(CCC2=CCNC2)c1 [compound 1367],pIC50,SSAO [1]; [4],5.62
C#CC(N)CCCc1ccc(OC)cc1 (stereo not shown) (as salt: hydrochloride),melting point,,175 °C (dec.)
COc1ccc(CCC2=CCNC2)cc1 [compound 1396],pIC50,SSAO [1]; [4],5.68
COc1cccc(CCC2=CCNC2)c1 [compound 1368],pIC50,SSAO [1]; [4],6.30
same,pIC50,human MAO-A,< 3.00
same,pIC50,human MAO-B,< 3.00
"CN(Cc1cnc2nc(N)nc(N)c2n1)c1ccc(C(=O)N[C@@H](CCC(=O)O)C(=O)O)cc1 [MTX, methotrexate]",EAE development after stopping treatment,C57BL/6 mice,a rise in disease incidence and severity was observed right after stopping the MTX treatment
COc1ccc(OCC2=CCCNC2)cc1OC [compound 1397],inhibition at 9 µM,SSAO [1]; Table II,54%
NC/C(=C/F)CCc1ccc(F)cc1 [mofegiline],EAE development after stopping treatment,C57BL/6 mice,continuously observed for at least one more week after the last treatment
same,"disease (clinical) severity, EAE development","C57BL/6 mice; dosing period d0-18, i.p., mofegiline 10 mg/kg/dose twice daily, MTX 2.5 mg/kg/day every other day",statistically significant reduction of disease seventy
same,disease incidence (mice affected),"C57BL/6 mice; dosing period up to day 18, 10 mg/kg/dose i.p. twice daily",50%
same,body weight,"C57BL/6 mice; dosing period, 10 mg/kg/dose i.p. twice daily",prevented body weight loss
